These are literature values, as cited in patent US8658806B2, “Process for preparing optically active antrocin” (Deyew Biotech Corp., priority 2011, dated 2014).

The subject of the data set is MDA-MB-231 cells. Particulars: from Rao et al., Chem. Res. Toxicol. 2011, 24, 238-245, read-out: IC50 value against MDA-MB-231 cells of metastatic breast cancer.

What is called IC50 is the concentration that inhibits the measured activity by half. Turning to `C=C1CC[C@H]2C(C)(C)CCC[C@@]23C(=O)OC[C@@H]13` [antrocin], the IC50 is 600 nM.
